In patent US20110178023A1, “Use Of SCO-Spondin Peptides For Inhibiting Or Preventing Neuronal Apoptosis Mediated By Cell Death Receptor Ligands” (Institut National de la Sante et de la Recherche Medicale …, priority 2007, published 2011):

B1: FasL: Fas ligand, cell death receptor ligand of the TNF superfamily used to induce apoptosis (protein, UniProt P48023 130-281, looked up)
Tumor necrosis factor ligand …: QIGHPSPPPEKKELRKVAHLTGKSNSRSMPLEWEDTYGIVLLSGVKYKKGGLVINETGLYFVYSKVYFRGQSCNNLPLSHKVYMRNSKYPQDLVMMEGKMMSYCTTGQMWARSSYLGAVFNLTSADHLYVNVSELSLVNFEESQTFFGLYKL
B2: TRAIL: TNF-related apoptosis inducing ligand, cell death receptor ligand used to induce apoptosis (protein, UniProt P50591 1-281, looked up)
Tumor necrosis factor ligand …: MAMMEVQGGPSLGQTCVLIVIFTVLLQSLCVAVTYVYFTNELKQMQDKYSKSGIACFLKEDDSYWDPNDEESMNSPCWQVKWQLRQLVRKMILRTSEETISTVQEKQQNISPLVRERGPQRVAAHITGTRGRSNTLSSPNSKNEKALGRKINSWESSRSGHSFLSNLHLRNGELVIHEKGFYYIYSQTYFRFQEEIKENTKNDKQMVQYIYKYTSYPDPILLMKSARNSCWSKDAEYGLYSIYQGGIFELKENDRIFVSVTNEHLIDMDHEASFFGAFLVG

Tested on: embryonic rat hippocampal cells
Test: Apoptosis detection (TUNEL, DAPI counter-staining) in treated hippocampal cell cultures
Type: cell-based
Conditions: for apoptosis induced by cell death receptor pathway (Fas, TRAIL-R) in hippocampal cells: TSR peptide added to culture medium, 7 days of treatment; for number of apoptotic cells with death receptor ligand alone: FasL 20 ng/mL or TRAIL 80 ng/mL alone
Method: FIG. 2: Histogramm representing the percentage of apoptotic cells outside the clusters compared with the total number of cells, data provided by only one experiment realized in triplicate. In each assay, apoptotic labelling with TUNEL method were counted on 4 photos aleatory on each slide, and having always at least 1 neurosphere. The cultures were treated (cases TSR, FasL, TSR+FasL, TRAIL, TSR+TRAIL, FasL+TRAIL and TSR+FasL+TRAIL) or not treated (control, c) during 7 days with a TSR peptide concentration of 375 μg/mL and/or 20 ng/mL of FasL and/or 80 ng/mL of TRAIL).
Cultures of hippocampal cells from foetal rats: Cells were obtained from E18 rat brains. Tissues were removed in dissection medium (Hank's Balanced Salt Solution, HBSS plus antibiotics). Composition of dissection medium HBSS plus antibiotics): • potassium chloride (KCl): 400 mg/L • potassium phosphate (KH2PO4): 60 mg/L • sodium bicarbonate (NaHCO3): 350 mg/L • sodium chloride (NaCl): 8000 mg/L • sodium phosphate (Na2HPO4): 48 mg/L • D-glucose: 1000 mg/L • penicillin-streptomycin: 100 units/mL
Meninges were removed from the embryos brains and hippocampus was dissected in a sterile petri dish in HBSS plus antibiotic medium. After centrifugation cells were ressuspended in culture medium MEM with Earl Salts supplemented with B27, EGF, FGF-2 and antibiotics. The composition of the culture medium was the following: • L-arginine hydrochloride: […] • L-cystine: 24 mg/L • L-glutamine: 292 mg/L • L-histidine-H2O Hydrochloride: 42 mg/L • L-isoleucine: 52 mg/L • L-leucine 52 mg/L • L-lysine Hydrochloride: 73 mg/l, • L-methionine: 15 mg/L • L-phenylalanine: 32 mg/L • L-threonine: 48 mg/L • L-tryptophane: 10 mg/L • L-tyrosine: 36 mg/L • L-valine: 46 mg/L • choline Chloride: 1 mg/L • D-calcium pantothenate: 1 mg/L • folic acid: 1 mg/L • I-inositol: 2 mg/L • Niacinamide: 1 mg/L • pyridoxal Hydrochloride: 1 mg/L • Riboflavine: 0.1 mg/L • thiamine Hydrochloride: 1 mg/L • calcium chloride (CaCl2-2H2O): 264 mg/L • magnesium sulfate (MgSO4-7H2O): 200 mg/L • potassium chloride (KCl): 400 mg/L • sodium bicarbonate (NaHCO3): 2200 mg/L • sodium chloride (NaCl): 6800 mg/L • sodium phosphate (NaH2PO4-2H2O): 158 mg/L • D-glucose: 4500 mg/L • phenol red: 10 mg/L • Sodium pyruvate: 110.04 mg/L • B27 medium (Invitrogen) 50×: 2% v/v • EGF: 20 μg/L • FGF-2: 20 μg/L • Penicillin-streptomycin: 100 units/mL
Hippocampus fragments were dissociated mechanically with 1 syringe 1 ml and 1 needle 25G and added with 1 mL of culture medium then centrifuged at 1200 rpm for 10 min. The supernatant is then removed and the cell pellet is resupended in 1 mL of culture medium. Other mechanic dissociation was performed with a seringe 1 mL and a needle 25G. Cell count was determined with Malassez hemocytometer and viability of cells was evaluated by counting the cells which have not absorbed the Trypan blue. Then cells are seeded in 48-well plates, at 40 000 cells by well in 500 μL of culture medium, on culture dishes precovered with collagen.
Preparation of precovered dishes with collagen: After an incubation of 10 min in absolute ethanol, the glass dishes were sterilized by heating 2H at 120° C. Sterilized glass dishes (10 mm diameter) was put on culture well and covered with a 0.1 mg/mL collagen calf skin solution. After 1 hr incubation at 37° C., the excess of solution is removed and the plate is maintained one night under hood of culture in order to let dry the plates. Before use, the wells were washed twice with 200 μL sterile distillated water.
Treatment of embryonic rat hippocampal cells: After 5 days of culture, cells were cultured in medium without growth factors (MEM with Earl salts, B27 and antibiotics) with different conditions of treatment combinating TSR peptide (WSGWSSCSRSCG—SEQ ID No 8) (375 μg/mL), FasL (20 ng/mL) and TRAIL (80 ng/mL). […]

Molecule | number of apoptotic cells, apoptosis induced by FasL (TSR peptide 375 μg/mL + FasL 20 ng/mL, 7 days, compared to FasL culture, FIG. 2) | number of apoptotic cells, apoptosis induced by TRAIL (TSR peptide 375 μg/mL + TRAIL 80 ng/mL, 7 days, compared to TRAIL culture, FIG. 2) | level of apoptosis (final statement, presumably FasL+TRAIL culture) (TSR peptide 375 μg/mL, 7 days, FIG. 2, inducer not given) | apoptosis induced by cell death receptor pathway (Fas, TRAIL-R) in hippocampal cells | apoptosis induced by cell death receptor pathway (Fas, TRAIL-R) in hippocampal cells (listed as peptide TSR) | effect on basal apoptosis (number of apoptotic cells) (TSR peptide alone 375 μg/mL, 7 days, compared to control cultures, FIG. 2) | number of apoptotic cells with death receptor ligand alone (7 days, FIG. 2)
WSGWSSCSRSCG [TSR peptide, peptide derived from the TSR (thrombospondin type 1 units) of SCO-spondin] | decreased | decreased in the presence of TSR peptide to a level comparable to control cells | restores the basal level of apoptosis | inhibits the apoptosis | decreased | no effect | –
B1 | – | – | – | – | – | – | increased
B2 | – | – | – | – | – | – | more important than in the presence of FasL
